These are literature values, as cited in patent US20220193127A1, “IMMUNOTHERAPY FOR OPIOID ADDICTION” (Therapeutic Solutions International, Inc., priority 2020, published 2022).

One series deals with microglial cells. The settings on record: for development of neuropathic pain: in vivo; for microglial activation / proinflammatory cytokines: neuropathic pain.
For series [1], the system named is dentate gyrus of the hippocampus.
[2] abbreviates: rats fed for 6 weeks with liquid diet containing moderate doses of ethanol, vs paired controls.

Regarding `CCCn1cnc2c1c(=O)n(CCCCC(C)=O)c(=O)n2C` [propentofylline], in the series with microglial cells, the “development of neuropathic pain” value is reported as “suppressing”, the microglial activation entry is recorded as “decrease” and the proinflammatory cytokines entry is given as “inhibit”.

With `O=C(O)CC(O)(C(=O)O)C(F)C(=O)O` (stereo not drawn) [fluorocitrate], in the series on microglial cells, the “development of neuropathic pain” value was “suppressing”, the microglial activation entry was “decrease” and the proinflammatory cytokines result was “inhibit”.

For the molecule `CC(=O)CCCCn1c(=O)c2c(ncn2C)n(C)c1=O` [pentoxifylline], in the series with microglial cells, the “development of neuropathic pain” value is reported as “suppressing”, the microglial activation entry is recorded as “decrease” and the proinflammatory cytokines entry is recorded as “inhibit”.

For the molecule `CCO` [ethanol], the “neurogenesis within the olfactory bulb” value in series [1] (rat model of alcoholism) is listed as “not affected”. In addition, in series [1] (setting [2]), the “decrease in the number of new neurons in the dentate gyrus” value was 66.3% and the “increase in cell death in the dentate gyrus” value was 227-279%.
